Test results published in patent US20240350512A1, “CYTOSKELETAL TENSION REGULATORS AND FAS LIGAND-COMBINATION COMPOSITIONS AND METHODS OF TREATMENT USING THE SAME” (Yale University, priority 2021, published 2024).

Experiments:
Fas receptors on HUVECs = assay: Immunostaining of surface Fas receptors on HUVECs; assay type: cell-based; details: 2 hours; regardless of the treatment
Description: (§1) FIGS. 2A-2E: Fas receptor expression on the cancer cell surface. FIG. 2A: Addition of either Fasudil, Blebbistatin, or GW5074 to the cell culture medium for 2 hours increased the Fas receptor staining on the cancer cells, but not on HUVECs. […] Fold increase of Fas staining density as response to treatment with FIG. 2C: Fasudil, FIG. 2D: Blebbisatin, and FIG. 2E: GW5074.
(§2) It was speculated that the active Raf-1, due to increased intracellular tension in cancer cell, can cause lack of Fas receptors on the cell surface and that either inhibition of Raf-1 or reduction of mechanical tension in the cytoskeleton can restore the Fas receptors on cell surface. To test this theory, U87 (glioblastoma), A549 (non-small cell lung cancer, resistant to apoptosis, FAS ligand alone increases proliferation), HepG2 (liver cancer), PC3 (prostate cancer), and SUM159 (triple negative breast cancer) cells were treated either with 20 μM Raf-1 inhibitor GW5074, 40 μM ROCK inhibitor Fasudil, or 10 μM myosin inhibitor Blebbistatin for 2 hours.

[1] = system: surface Fas receptors of cancer cells (U87, A549, HepG2, PC3, and SUM159 cells); assay: Immunostaining of surface Fas receptors on cancer cells; assay type: cell-based; details: 2 hours; 40 μM Fasudil, 10 μM Blebbistatin or 20 μM GW5074; range over U87, A549, HepG2, PC3, SUM159
Description: as §1
In the present study, the effect of the ROCK inhibitor Fasudil, Myosin-II inhibitor Blebbistatin, or the Raf-1 inhibitor GW5074 on Fas receptor translocation on surface of U87, A549, HepG2, PC3, and SUM159 cells was evaluated. The effect of these drugs on cell viability when used alone or in combination with exogenous, recombinant Fas ligand was analyzed. Next, the effects of Fasudil and Fas ligand combination on glioblastoma growth and on viability of non-cancerous cells in engineered brain organoids was investigated. Finally, the in vivo efficacy of the Fasudil-Fas ligand combination on preventing tumor growth in a xenograft U87 tumor model in nude mice was tested.
as §2

U87 cells = assay type: cell-based; details: for cell viability in U87 cells, drug combined with Fas ligand: Fas ligand 400 ng/mL with 40 μM Fasudil, 10 μM Blebbistatin or 20 μM GW5074
Excerpt: FIGS. 3A-3E: Fortified Fas-mediated apoptosis in cancer cells. […] FIG. 3B: representative light microscopy images of U87 cells showing the effect of Fasudil-Fas ligand combination. For the other cancer cell types see FIG. 7. Fasudil-Fas ligand combination decreased the viability of A549, HepG2, SUM159, PC3, and BT549 cells synergistically (FIGS. 3C-3D).
(§3) After showing that Fas receptor expression on the cell surface can be increased with different ques targeting cytoskeletal tension, the Fas-mediated apoptosis triggered by the exogenous Fas ligand when combined with Fasudil, Blebbistain, or GW5074 was studied. The cell viability by quantifying the ATP level present in the cell culture medium after 48 hours of treatment was assessed.

U87 xenograft tumor = U87 xenograft tumor model in nude mice; assay type: in vivo; details: for average tumor size: one month after tumor initiation, intraperitoneal injection twice a week for four weeks; for median survival probability: terminal point 1000 mm^3
Description: Further, the anti-tumor efficacies of Fas ligand and Fasudil combination using a U87 xenograft tumor model in nude mice were evaluated. Fas ligand and Fasudil were administrated by intraperitoneal injection when the subcutaneous tumor grew to palpable size >50 mm^3 twice a week for four weeks. The mice were primed with either Fasudil or saline 24 hours before the injection of Fasudil and Fas ligand together. Only Fasudil, only Fas ligand, and only saline injections were made in the control groups. 7-10 mice with tumor volumes ranging from 50-200 mm^3 were randomly assigned to each treatment arm. Terminal point for the tumor growth was determined as 1000 mm^3.

SUM159 cells = assay type: cell-based
Description: as §3

A549 cells = assay type: cell-based
Description: as §3

HepG2 cells = assay type: cell-based
Description: as §3

BT549 cells = assay type: cell-based
Description: as §3

PC3 cells = assay type: cell-based
Description: as §3

Row | Molecule | Fas staining of HUVECs (Fas receptors on HUVECs) | increase of immunostaining of surface Fas receptors of cancer cells [1] | cell viability in U87 cells, drug combined with Fas ligand (U87 cells) | average tumor size (U87 xenograft tumor) | median survival probability (U87 xenograft tumor) | cell viability (SUM159 cells) | cell viability (A549 cells) | cell viability (HepG2 cells) | cell viability (BT549 cells) | cell viability (PC3 cells) | cell viability (U87 cells)
1 | O=C1Nc2ccc(I)cc2/C1=C/c1cc(Br)c(O)c(Br)c1 [GW5074] | negligible | 1.62-2.30 folds | decreased cell viability significantly | – | – | – | – | – | – | – | –
2 | O=S(=O)(c1cccc2cnccc12)N1CCCNCC1 [Fasudil, fasudil] | negligible | 2.12-3.28 folds | decreased cell viability significantly | 584.4±113.8 mm3 | 28% | – | – | – | – | – | –
3 | Cc1ccc2c(c1)C(=O)C1(O)CCN(c3ccccc3)C1=N2 (stereo not shown) [Blebbistatin, blebbistatin] | negligible | 1.76-2.15 folds | decreased cell viability significantly | – | – | – | – | – | – | – | –
4 | Fas ligand: human recombinant Fas ligand, protein having the amino acid sequence SEQ ID NO: 1 (protein, listed as Homo sapiens) MQQPFNYPYPQIYWVDSSASSPWAPPGTVLPCPTSVPRRPGQRRPPPPPPPPPLPPPPPPPPLPPLPLPPLKKRGNHSTGLCLLVMFFMVLVALVGLGLGMFQLFHLQKELAELRESTSQMHTASSLEKQIGHPSPPPEKKELRKVAHLTGKSNSRSMPLEWEDTYGIVLLSGVKYKKGGLVINETGLYFVYSKVYFRGQSCNNLPLSHKVYMRNSKYPQDLVMMEGKMMSYCTTGQMWARSSYLGAVFNLTSADHLYVNVSELSLVNFEESQTFFGLYK | – | – | – | 602.2±195.7 mm3 | 27% | 59.9 % of the control | 67.8 % of the control | 44.6 % of the control | 58.0 % of the control | 80.2 % of the control | 55.6 % of the control
